Laboratory results from publication PMC10766536 (The Journal of Antibiotics, 2023).
“Also recorded” adds a separate entry of the source.

How the values were obtained:
hERG = hERG (Homo sapiens, UniProt Q12809); assay: in vitro
S. aureus NRS384 [1] = assay: S. aureus intracellular killing assay in THP-1 macrophages; type: cell-based; details: S. aureus NRS384 in THP-1 macrophages, 2 h, top conc. 1e−6 M
Protocol: (§1) THP-1 monocytic cell line (American Type Culture Collection) was grown in media (RPMI + 10% FBS + 1% Penicillin/Streptomycin), then seeded at a density of 1e5 cells/well in a 96 well plate and differentiated into macrophages for 3 days prior to infection using 200 nM PMA. Overnight culture of S. aureus or S. typhimurium was grown in RPMI or TSB, respectively, washed twice with PBS and resuspended at 1e7 cfu/ml in PBS. THP-1 were washed with warm media (RMPI without FBS) to remove the Penicillin/Streptomycin and then infected with the bacterial suspension at a multiplicity of infection of 10:1 (S. aureus:macrophages) or 5:1 (S. typhimurium:macrophages). Plates were centrifuged at 300 × g for 5 min to synchronize adhesion of the bacteria to the macrophages, then incubated at 37 °C for 2 h for S. aureus infection or 1 h for S. typhimurium infection. Free-floating bacteria were removed by washing twice with warm media and the remaining extracellular bacteria were killed by addition of media containing gentamicin (50 ug/ml). After 1 h, media was aspirated and the indicated compound was added to the S. aureus-infected macrophages in a dilution series starting at 1e−6 M, with 1:5 dilutions for 6 points (1.0 × 10^−6 M, 2.0 × 10^−7 M, 4.0 × 10^−8 M, 8.0 × 10^−9 M, 1.6 × 10^−9 M, and 3.2 × 10^−10 M) or to the to the S. typhimurium-infected macrophages in a dilution series starting at 1e−4 M, with 1:3 dilutions followed by 1:10 dilutions for 6 points (1.0 × 10^−4 M, 3.0 × 10^−5 M, 1.0 × 10^−5 M, 1.0 × 10^−6 M, 1.0 × 10^−7 M, and 1.0 × 10^−8 M). The compounds were added in media containing 50 µg/ml gentamicin to prevent extracellular growth of bacteria. After 2 h, plates were washed twice with warm RPMI without FBS, and 100 μl of THP-1 lysis buffer (0.1% Triton in PBS) was added to each well. Bacterial survival was enumerated by colony forming units (cfu) through serial dilution and plating onto tryptic soy agar (TSA, Teknova) plates.

[2] = test system: Salmonella typhimurium AR-0031; assay: S. typhimurium intracellular killing assay in THP-1 macrophages; type: cell-based; details: Salmonella typhimurium AR-0031 in THP-1 macrophages, top conc. 1e−4 M
Protocol: as §1

[3] = test system: Salmonella typhimurium ATCC 14028; assay: as above; type: cell-based; details: Salmonella typhimurium ATCC 14028 in THP-1 macrophages, top conc. 1e−4 M
Protocol: as §1

[4] = test system: S. aureus MRSA strain N315; assay: S. aureus IV advanced disseminated infection mouse model, kidney burden; type: in vivo, Balb/c mice
Protocol: (§2) S. aureus MSRA strain NRS384 or N315 (BEI Resources), where indicated, was grown overnight in TSB and sub-cultured to mid-logarithmic phase. […] From 1 to 3 days post-infection, indicated mice were injected subcutaneously with 110 mg/kg vancomycin twice daily where indicated. […] Mice were monitored for weight loss and body conditioning score throughout the infection. At 4 days post-infection, mice were euthanized, and the S. aureus kidney burden was quantified by tissue homogenization followed by enumeration of cfu through serial dilution in PBS and plating onto TSA plates. Data points represent the kidney burden from individual mice tested. Statistical analysis was conducted with GraphPad Prism 9, Version 9.4.1.

[5] = test system: S. aureus MRSA strain NRS384; assay: as above; type: in vivo, Balb/c mice; details: for S. aureus kidney burden, efficacy: NRS384
Protocol: as §2

[6] = human
in vitro [7] = details: CD-1, mouse
in vitro [8] = details: SD, rat
in vitro [9] = details: human, Caco-2
endogenous transporters = assay: in vitro; details: human, Caco-2
P-gp (MDR1) = P-gp (MDR1) (Homo sapiens, UniProt P08183); assay: in vitro; details: dog, MDCK-MDR1
[10] = test system: Caco-2: endogenous transporters; assay: Caco-2 permeability
[11] = Human plasma protein binding
[12] = target: MDCK-MDR1: overexpression of Pgp (Homo sapiens, UniProt P08183); assay: MDCK-MDR1 permeability and efflux
[13] = Compound stability in CYP induction assay
S. aureus NRS384 [14] = assay: S. aureus broth killing (growth inhibition) assay; details: S. aureus NRS384, TSB, 24 h, OD600
From the text: (§3) To test the potency of rifamycin analogs of the disclosure in vitro, a broth growth inhibition assay was developed.

[15] = test system: Salmonella typhimurium AR-0031; assay: S. typhimurium broth killing (growth inhibition) assay; details: Salmonella typhimurium AR-0031, TSB, 24 h
From the text: as §3

[16] = test system: Salmonella typhimurium ATCC 14028; assay: as above; details: Salmonella typhimurium ATCC 14028, TSB, 24 h
From the text: as §3

CYP1A2 = assay: in vitro; details: human
CYP2B6 = assay: in vitro; details: human
CYP3A4 = assay: in vitro; details: human
Sprague Dawley rats = assay: 2-week IV once-a-day toxicity study with 2-week recovery in Sprague Dawley rats
Protocol: A subset from each dose group was maintained for 14 days after the last dose to evaluate delayed toxicity and/or recovery. All animals were observed twice daily for mortality and signs of pain or distress. Detailed clinical observations, body weight measurements and food consumption were conducted weekly; post dose observations (30 min post dose) were conducted daily or as required. Clinical pathology evaluations (hematology, coagulation parameters, and serum chemistry) were performed using samples collected on the day of scheduled sacrifice (main and recovery). At the end of the 14-day dosing period, and at the end of the 14-day recovery period, necropsies were performed on all animals, selected organs were weighed, and tissues were examined macroscopically and microscopically. Toxicokinetic parameters were evaluated on Day 1 and 14.

[17] = 25 mg/kg in combination with vancomycin

Sequence of P-gp (MDR1) (P08183 whole entry): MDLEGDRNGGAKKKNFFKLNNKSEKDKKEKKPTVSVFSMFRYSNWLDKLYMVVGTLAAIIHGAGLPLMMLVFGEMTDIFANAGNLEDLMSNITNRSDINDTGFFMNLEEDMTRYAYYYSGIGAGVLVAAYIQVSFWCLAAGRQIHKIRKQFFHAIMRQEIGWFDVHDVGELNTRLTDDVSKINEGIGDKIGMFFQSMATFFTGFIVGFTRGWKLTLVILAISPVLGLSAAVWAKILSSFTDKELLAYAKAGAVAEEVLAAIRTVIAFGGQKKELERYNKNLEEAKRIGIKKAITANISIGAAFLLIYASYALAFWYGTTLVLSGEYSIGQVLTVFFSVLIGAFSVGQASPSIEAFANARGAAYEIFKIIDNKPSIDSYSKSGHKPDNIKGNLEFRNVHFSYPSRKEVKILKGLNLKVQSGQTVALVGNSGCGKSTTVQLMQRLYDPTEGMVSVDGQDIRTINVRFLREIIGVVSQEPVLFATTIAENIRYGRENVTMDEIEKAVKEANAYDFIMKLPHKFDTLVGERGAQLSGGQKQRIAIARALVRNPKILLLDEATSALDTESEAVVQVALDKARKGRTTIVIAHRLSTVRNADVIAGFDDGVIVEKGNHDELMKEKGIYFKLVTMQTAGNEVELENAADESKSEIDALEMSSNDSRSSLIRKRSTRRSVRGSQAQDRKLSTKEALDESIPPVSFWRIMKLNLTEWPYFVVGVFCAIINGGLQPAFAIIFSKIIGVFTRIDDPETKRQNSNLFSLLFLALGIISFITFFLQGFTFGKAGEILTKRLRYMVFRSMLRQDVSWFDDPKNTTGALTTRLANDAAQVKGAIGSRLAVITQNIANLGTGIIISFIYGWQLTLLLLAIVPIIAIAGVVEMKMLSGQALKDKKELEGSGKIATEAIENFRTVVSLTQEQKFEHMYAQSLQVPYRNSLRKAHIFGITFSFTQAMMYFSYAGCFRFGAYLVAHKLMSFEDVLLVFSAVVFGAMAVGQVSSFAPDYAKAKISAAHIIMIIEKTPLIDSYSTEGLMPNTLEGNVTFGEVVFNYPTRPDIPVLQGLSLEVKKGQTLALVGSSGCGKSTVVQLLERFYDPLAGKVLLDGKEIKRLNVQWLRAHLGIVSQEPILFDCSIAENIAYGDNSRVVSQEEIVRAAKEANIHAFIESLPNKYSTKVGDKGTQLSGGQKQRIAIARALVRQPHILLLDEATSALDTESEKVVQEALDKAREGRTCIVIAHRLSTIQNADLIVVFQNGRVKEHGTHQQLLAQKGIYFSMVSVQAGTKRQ
Sequence of MDCK-MDR1: overexpression of Pgp (P08183 whole entry): as above
Sequence of hERG (Q12809 whole entry): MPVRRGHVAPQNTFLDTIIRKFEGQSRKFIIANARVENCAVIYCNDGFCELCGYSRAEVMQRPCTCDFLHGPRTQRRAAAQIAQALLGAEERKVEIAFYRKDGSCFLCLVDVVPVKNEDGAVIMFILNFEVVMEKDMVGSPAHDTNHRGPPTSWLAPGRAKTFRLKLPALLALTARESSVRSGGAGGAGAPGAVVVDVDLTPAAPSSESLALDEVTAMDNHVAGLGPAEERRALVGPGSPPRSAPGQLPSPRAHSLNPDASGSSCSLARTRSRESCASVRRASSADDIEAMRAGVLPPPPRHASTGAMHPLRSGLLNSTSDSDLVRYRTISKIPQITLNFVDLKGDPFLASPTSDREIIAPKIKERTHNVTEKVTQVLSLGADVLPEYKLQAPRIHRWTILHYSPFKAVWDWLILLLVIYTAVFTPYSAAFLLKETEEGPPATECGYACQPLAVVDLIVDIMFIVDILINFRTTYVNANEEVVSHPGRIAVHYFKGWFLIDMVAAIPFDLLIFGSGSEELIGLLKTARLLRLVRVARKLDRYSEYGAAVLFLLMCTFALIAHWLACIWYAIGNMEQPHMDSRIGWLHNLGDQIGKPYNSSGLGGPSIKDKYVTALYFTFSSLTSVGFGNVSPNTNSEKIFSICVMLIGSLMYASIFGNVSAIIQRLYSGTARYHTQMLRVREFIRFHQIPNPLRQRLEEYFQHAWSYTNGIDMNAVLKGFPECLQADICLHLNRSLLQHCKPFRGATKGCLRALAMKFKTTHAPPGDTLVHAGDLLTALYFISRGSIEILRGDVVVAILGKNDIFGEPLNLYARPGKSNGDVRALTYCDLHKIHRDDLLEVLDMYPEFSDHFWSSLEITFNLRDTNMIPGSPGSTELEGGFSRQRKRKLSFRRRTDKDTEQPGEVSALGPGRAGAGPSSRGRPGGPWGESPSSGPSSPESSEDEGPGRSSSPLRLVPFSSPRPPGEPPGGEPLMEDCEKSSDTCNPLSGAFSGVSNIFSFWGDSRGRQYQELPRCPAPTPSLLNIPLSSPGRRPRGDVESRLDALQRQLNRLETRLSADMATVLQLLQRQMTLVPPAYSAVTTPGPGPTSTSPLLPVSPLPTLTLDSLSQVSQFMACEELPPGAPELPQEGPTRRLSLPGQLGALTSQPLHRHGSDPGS

`COc1cc(N)c(Cl)cc1C(=O)NC1CCN(CCCOc2ccc(F)cc2)CC1OC` (centres unmarked) [Cisapride] showed an inhibition at 0.09 µM (hERG) of 87.6%.

With `CO[C@H]1/C=C/O[C@@]2(C)Oc3c(C)c(O)c4c(O)c(c(/C=N/N5CCN(C)CC5)c(O)c4c3C2=O)NC(=O)/C(C)=C\C=C\[C@H](C)[C@H](O)[C@@H](C)[C@@H](O)[C@@H](C)[C@H](OC(C)=O)[C@@H]1C` [Compound 1, rifampicin] the “Intracellular MIC” value (S. aureus NRS384 [1]) was 1 µM, the “Intracellular MIC” value [2] was “No activity” and the “Intracellular MIC” value [3] was “No activity”. For the same compound, the “S. aureus kidney burden” value [4, 17] was “to or near the limit of detection”, the “S. aureus kidney burden, efficacy” value [5, 17] was “effective; also recorded: reduced kidney burden” and the “S. aureus kidney burden, efficacy” value ([5]; 25 mg/kg monotherapy) was “ineffective”. For the same compound, the “S. aureus kidney burden, efficacy” value ([5]; doses lower than 0.25 mg/kg in combination with vancomycin) was “efficacy was reduced to vancomycin alone levels”, the “% Recovery (vs. T0 stability)” value [6] was 81.9% and the CLint scaled (in vitro [7]; S9 microsomes) was less than 2.73 L/h/kg. It also gave a remaining at 2 h (in vitro [7]; S9 microsomes) of 125%, a CLint scaled (in vitro [8]; S9 microsomes) of less than 1.4 L/h/kg and a remaining at 2 h (in vitro [8]; S9 microsomes) of 129%. The Papp A→B (in vitro [9]) was 5.89 nm/s, the Papp B→A (in vitro [9]) was 59.3 nm/s and the recovery (endogenous transporters) was 79.5%. It also gave a Papp A→B (P-gp (MDR1)) of 2.87 nm/s, a Papp B→A (P-gp (MDR1)) of 62.5 nm/s and a recovery (P-gp (MDR1)) of 76.5%. The “Mean B-A % Recovery” value [10] was 80.80%, the “% Protein Bound” value [11] was 79.1 ± 0.6% and the “% Protein Free” value [11] was 20.9 ± 0.6%. For the same compound, the “% Matrix Stability (6 h)” value [11] was 74.3%, the “Mean B-A % Recovery” value [12] was 74.40% and the “Average % Stability” value [13] was 85.2%. The “Broth MIC” value (S. aureus NRS384 [14]) was 0.0156 µM, the “Broth MIC” value [15] was 16 µM and the “Broth MIC” value [16] was 16 µM.

With `COC1C=COC2(C)Oc3c(C)c(O)c4c(=O)c(c5oc6cc(OCCN)ccc6nc-5c4c3C2=O)NC(=O)C(C)=CC=CC(C)C(O)C(C)C(O)C(C)C(OC(C)=O)C1C` (centres unmarked) [Compound 2] the “Intracellular MIC” value (S. aureus NRS384 [1]) was 1 µM and the “Broth MIC” value (S. aureus NRS384 [14]) was 0.412 µM.

In the case of `CNCCOc1ccc2nc3c4c5c6c(C)c(O)c4c(=O)c(c-3oc2c1)NC(=O)C(C)=CC=CC(C)C(O)C(C)C(O)C(C)C(OC(C)=O)C(C)C(OC)C=COC(C)(O6)C5=O` (centres unmarked) [Compound 3], the “Intracellular MIC” value (S. aureus NRS384 [1]) is reported as 1 µM and the “Broth MIC” value (S. aureus NRS384 [14]) is reported as 0.0457 µM.

In the case of `COC1C=COC2(C)Oc3c(C)c(O)c4c(=O)c(c5oc6ccc(OCCN(C)C)cc6nc-5c4c3C2=O)NC(=O)C(C)=CC=CC(C)C(O)C(C)C(O)C(C)C(OC(C)=O)C1C` (centres unmarked) [Compound 6], the “Intracellular MIC” value (S. aureus NRS384 [1]) is reported as 1 µM and the “Broth MIC” value (S. aureus NRS384 [14]) is reported as 0.0625 µM.

In the case of `CO[C@H]1/C=C/O[C@@]2(C)Oc3c(C)c(O)c4c(c3C2=O)C2=NC3(CCN(CC(C)C)CC3)NC2=C(NC(=O)/C(C)=C\C=C\[C@H](C)[C@H](O)[C@@H](C)[C@@H](O)[C@@H](C)[C@H](OC(C)=O)[C@@H]1C)C4=O` [Rifabutin], the “% Recovery (vs. T0 stability)” value [6] is reported as 98.2%, the CLint scaled (in vitro [7]; s9) is reported as 13.1 L/h/kg and the half-life (in vitro [7]; s9) is reported as 0.417 h. It also gave a remaining at 2 h (in vitro [7]; s9) of 4.6%, a CLint scaled (in vitro [8]; s9) of 0.141 L/h/kg and a half-life (in vitro [8]; s9) of 19.9 h. For the same compound, the remaining at 2 h (in vitro [8]; s9) was 89%, the Papp A→B (in vitro [9]) was 110 nm/s and the Papp B→A (in vitro [9]) was 71.5 nm/s. The efflux ratio (in vitro [9]) was 0.648, the recovery (endogenous transporters) was 64.8% and the Papp A→B (P-gp (MDR1)) was 35.7 nm/s. The Papp B→A (P-gp (MDR1)) was 168 nm/s, the efflux ratio (P-gp (MDR1)) was 4.7 and the fold induction (CYP1A2) was 2. The fold induction (CYP2B6) was 2.65, the fold induction (CYP3A4) was 2.36 and the “Mean B-A % Recovery” value [10] was 59.10%. The “% Protein Bound” value [11] was 89.6 ± 0.5%, the “% Protein Free” value [11] was 10.4 ± 0.5% and the “% Matrix Stability (6 h)” value [11] was 104.9%. For the same compound, the “Mean A-B % Recovery” value [12] was 91.30%, the “Mean B-A % Recovery” value [12] was 67.90% and the “Average % Stability” value [13] was 77.8%.

With `CN[C@H](CC(C)C)C(=O)N[C@H]1C(=O)N[C@@H](CC(N)=O)C(=O)N[C@H]2C(=O)N[C@H]3C(=O)N[C@H](C(=O)N[C@H](C(=O)O)c4cc(O)cc(O)c4-c4cc3ccc4O)[C@H](O)c3ccc(c(Cl)c3)Oc3cc2cc(c3O[C@@H]2O[C@H](CO)[C@@H](O)[C@H](O)[C@H]2O[C@H]2C[C@](C)(N)[C@H](O)[C@H](C)O2)Oc2ccc(cc2Cl)[C@H]1O` [Vancomycin, reference compound] the “reduction in S. aureus kidney burden” value ([4]; vancomycin alone, 110 mg/kg sc twice daily) was ~ 4 log, the “reduction in S. aureus kidney burden” value ([5]; vancomycin alone, 110 mg/kg sc twice daily days 1-3, NRS384, day 4) was 2–3 log and the “hematology changes (red cell mass decrease, neutrophil decrease, platelet increase)” value (Sprague Dawley rats; males given vancomycin alone 110 mg/kg/day, end of treatment) was “also noted in males given vancomycin alone”. The “body weight, body weight gains, food consumption changes” value (Sprague Dawley rats; rat, IV QD 14 days, alone or in combination with vancomycin) was “no body weight, body weight gains, or food consumption changes”.
